Data: patent publication US12036241B2, “Compositions and methods for immune cell modulation in adoptive immunotherapies” (Fate Therapeutics, Inc., priority 2017, dated 2024)
“Also recorded” adds a separate entry of the source. Like-named read-outs stand apart in the source and are kept apart here.

Tests used:
[1] = test system: CD8+ T cells; assay: Cytokine production (IFNγ, IL-2, TNFα) after PMA/ionomycin, intracellular staining; format: cell-based, human; conditions: PMA/ionomycin 4 h; FIG. 3D
Method: The ability of T cells to respond to a variety of stimuli can be important to their function. The capacity of T cells to produce multiple cytokines in response to non-specific stimulation is a measure of their ‘multifunctionality’. To assess whether compounds affect this ‘multifunctional’ response, the ability of modulated T cells to produce interferon-γ (IFNγ), IL-2 and/or TNFα post-stimulation was determined. After CD8^+ T cell treatment with each of the selected compounds, cells were stimulated with a mixture of PMA/ionomycin for four hours. Following stimulation, cytokine production was measured using intracellular cytokine staining with antibodies recognizing these cytokines conjugated to different fluorophores. Fluorescence was measured using flow cytometry. Cell were defined as multifunctional if they produced two or more cytokines. The proportion of T cell subsets that produce specific single, double or triple cytokines was examined and compared to cells without modulation using a selected compound.
The ability of T cells to respond to a variety of stimuli is important for their function. The capacity of T cells to produce multiple cytokines in response to non-specific stimulation is a measure of their “multifunctionality”. To assess whether selected compounds affect this “multifunctional” response in view of their phenotype skewing effect on the treated cells, the ability of treated cells to produce interferon-γ (IFNγ), IL-2 and TNFα post-stimulation was determined. After treatment of CD8+ T cells with a compound from Table 1, cells were stimulated with a mixture of PMA/ionomycin for four hours. Following stimulation, cytokine production was measured by intracellular cytokine staining with fluorescence-emitting antibodies recognizing these cytokines conjugated to different fluorophores. Fluorescence was measured using flow cytometry. Cells were defined as multifunctional if they produced at least two of the three cytokines.

[2] = test system: irradiated K562 cells expressing CD19 and mKate2; assay: Target cell killing by compound-treated CAR-T cells (IncuCyte); format: cell-based, human; conditions: earlier time points, 24 to 65 hours; FIG. 4A
[3] = test system: CAR-T cells in spleen and bone marrow; assay: In vivo persistence of CAR-T cells during and after tumor clearance; design: species or system mice; conditions: FIG. 9 legend
From the text: Further, in vivo persistence of compound-treated CAR-T cells during and after tumor clearance was also investigated. One of the main correlates of successful CAR-T cell therapy in patients is the persistence of CAR-T cells (i.e., through cell survival and/or cell expansion in vivo). To model CAR-T cell persistence in vivo, CD4+ and CD8+ T cells were separately expanded and transduced with a lentivirus encoding CAR-T2A-Thy1 and cultured in the presence of DMSO or a lentivirus encoding CAR-T2A-GFP and cultured in the presence of a testing compound (Table 3). Then a cohort of mice were injected with a curative dose (2×10^6) of CAR-T cells that was composed of CAR-T cell subsets from two different expansion protocols and mixed at approximately a 1:1:1:1 ratio, and the initial ratio of the CAR-T cells subsets in the injection mix was further determined prior to injection. All mice in the cohort had received Nalm-6-luc cells 4 days earlier and were able to clear the tumor by the injected CAR-T cells.
At day 7, 15, 21, and 32 post CAR-T cell injection (day 0: tumor engraftment, day 4: CAR-T cell injection) mice were sacrificed and the relative proportions of the CAR-T cells expanded in DMSO or the testing compound in both spleen and bone marrow were determined. FIG. 9 exemplifies the effect of a PDK1 inhibitor treatment on CAR-T cell in vivo persistence. […]

[4] = test system: CAR-T cells; assay: Serial restimulation of CAR-T cells produced with vehicle, PI3K inhibitor or PDK1 inhibitor; format: cell-based, human; conditions: after antigen stimulation and withdrawal, and with coated beads; FIG. 10 legend
Method: At the end of the manufacturing process, the cells were frozen prior to subsequent functional analysis.
The ability of CAR-T cells produced in the presence of vehicle, PI3K inhibitor, or PDK1 inhibitor to expand through multiple rounds of antigen stimulation was measured in a serial restimulation assay, wherein cryopreserved CAR-T cells were thawed and co-cultured in the presence of antigen-bearing, irradiated target cells. Every 3 to 4 days the CAR-T and target cell ratios were readjusted to approximately 1:1. […] As an alternative to using antigen-bearing, irradiated target cells for CAR-T cell stimulation, cryopreserved CAR-T cells from three independent donors produced in the presence of vehicle, PI3Ki or PDKli were thawed in T cell growth media and subsequently assessed for expansion and survival, as measured by AUC (area under the curve) of the expansion over 14 days of stimulation with anti-CAR antibodies conjugated to beads.

[5] = test system: CD19 and BCMA CAR-T cells; assay: Cytokine production on stimulation with antigen-bearing cells, MSD analysis; format: cell-based, human
[6] = test system: Nalm-6; assay: Survival in Nalm6/NSG tumor model, suboptimal CAR-T dose; format: in vivo, NSG mice; conditions: 3×10^5 CD19 CAR-T cells; FIG. 12A; listed as PDK1 inhibitor
Method: (§1) Next, an in vivo assay was conducted to further characterize CAR-T cells produced in the presence of a PI3K inhibitor or a PDK1 inhibitor for tumor clearance. NSG mice were injected with a human leukemia line, Nalm-6. Four days later, mice were treated with a suboptimal dose (3×10^5) of freshly thawed CD19 CAR-T cells generated in the presence of vehicle (“DMSO” n=8), PI3K inhibitor (n=8), or PDK1 inhibitor (n=8). Some tumor bearing mice (n=2) also received expanded T cells that were not transduced with CAR (untransduced or “UNTD”). Negative control mice (n=2, “Unmanip”) received neither tumor nor CAR T cells. […] Seven days later, a suboptimal dose (2.5×10^5) of CD19 CAR-T cells produced in the presence of DMSO, PDK1 inhibitor, or PI3K inhibitor were transferred and the survival of the tumor bearing mice was monitored.

[7] = test system: Raji; assay: Survival in Raji/NSG tumor model, suboptimal CAR-T dose; format: in vivo, NSG mice; conditions: 2.5×10^5 CD19 CAR-T cells; FIG. 12B; listed as PDK1 inhibitor
Method: as §1

[8] = test system: luciferase expressing Nalm6 tumor cells; assay: Two-stage tumor clearance model, primary tumor; format: in vivo, NSG mice; conditions: compared to DMSO treated CAR-T; FIG. 13C
Method: (§2) To further assess tumor clearance and control by CAR-T cells modulated with a selected compound, a two-stage tumor clearance model was established. […] Secondary tumor burden was measured via bi-weekly caliper measurements and IVIS imaging. IVIS control mice received neither tumor nor CAR-T cells and served as the background luminescence for the IVIS imager.

[9] = test system: K562 tumor cells engineered to express CD19 and luciferase; assay: Two-stage tumor clearance model, secondary tumor re-challenge; format: in vivo, NSG mice; conditions: re-challenge 47 days post primary tumor, FIG. 13D
Method: as §2

[10] = test system: CD8+ CAR-T cells; conditions: FIG. 2C

SMILES: CNc1nc(-c2ccc3c(N)n[nH]c3c2)cc(N2C[C@@H](C(=O)NC3CCCCC3)CC[C@H]2C)n1 [Compound 21, GSK2334470]
- increase of IFNγ+ only subpopulation [1]: ~10 fold
- increase of IL-2 only subpopulation [1]: ~19 fold
- kinetics of target cell killing compared to vehicle [2]: slower than for vehicle
- persistence of CAR-T cells during and after tumor clearance in vivo [3]: increased persistence
- CAR-T cell expansion [4]: improves CAR-T cell expansion
- IL-2 production compared to DMSO ([5]; after 14 days of CAR activation): overall greater amounts of IL-2
- IL-2 production compared to DMSO ([5]; immediately following thaw (day 0)): greater amounts of IL-2
- IFNγ and TNF production compared to DMSO ([5]; post thaw): comparable
- survival of tumor bearing mice compared to DMSO generated CAR-T cells [6]: prolonged survival; also recorded: improves survival
- survival of tumor bearing mice compared to DMSO treated CAR-T cells [7]: substantially improved; also recorded: improves survival
- in vivo efficacy at day 11 post primary tumor injection [8]: greater in vivo efficacy
- control of secondary tumor ([9]; listed as PDK1): superior and rapid control of secondary tumor
- control of secondary tumor ([9]; listed as PDK1 inhibitor): rapid control of secondary tumor
- donors in which treatment significantly improved expansion of CD8+ CAR-T cells vs vehicle ([10]; 5 healthy donors): 4 out of 5
- expansion of CD8+ CAR-T cells in comparison to vehicle treatment ([10]; listed as PDK1i): significantly improved
- expansion of CD8+ CAR-T cells in comparison to vehicle treatment ([10]; listed as PDK1 inhibitor): improves expansion
